The results in this text go back to the SangsterLogP compilation.

For `COc1ccc(CC(=O)C2c3cccc(O)c3C(=O)c3c(O)cccc32)cc1`, the logP turned out to be 4.2. `O=C1c2c(O)cccc2C(=Cc2cc(O)c(O)c(O)c2)c2cccc(O)c21` returned a lipophilicity (logP) of 3.32. The figure for `N#Cc1ccc(C=C2c3cccc(O)c3C(=O)c3c(O)cccc32)cc1` is 4.58; for `O=C1c2c(O)cccc2C(=Cc2ccc(C(F)(F)F)cc2)c2cccc(O)c21` it is 5.48. As for `O=C1c2c(O)cccc2C(C(=O)CCc2ccc(OCc3ccccc3)cc2)c2cccc(O)c21`, the logP is 5.63. The figure for `COc1ccc(CCC(=O)C2c3cccc(O)c3C(=O)c3c(O)cccc32)cc1OC` is 4.21; for `O=C1c2c(O)cccc2C(C(=O)Cc2ccc(O)cc2)c2cccc(O)c21` it is 3.38; for `O=C1c2c(O)cccc2C(=Cc2ccc(O)cc2)c2cccc(O)c21` it is 4.52. Consider `O=C1c2c(O)cccc2C(C(=O)CCCc2ccccc2)c2cccc(O)c21`, for which the logP is 4.74. Turning to `O=C1c2c(O)cccc2C(C(=O)Cc2cc(OCc3ccccc3)c(OCc3ccccc3)c(OCc3ccccc3)c2)c2cccc(O)c21`, the logP is 6.11. `COc1ccc(CCC(=O)C2c3cccc(O)c3C(=O)c3c(O)cccc32)cc1` yielded a logP of 4.72. Regarding `O=C1c2c(O)cccc2C(C(=O)Cc2ccccc2)c2cccc(O)c21`, the logP was found to be 4.24. As to `O=C1c2c(O)cccc2C(C(=O)Cc2ccc(O)c(O)c2)c2cccc(O)c21`, the logP turned out to be 3. Regarding `CC(C)(C)c1cc(CC(=O)C2c3cccc(O)c3C(=O)c3c(O)cccc32)cc(C(C)(C)C)c1O`, the logP was 5.33. Compound `COC(=O)c1ccc(C=C2c3cccc(O)c3C(=O)c3c(O)cccc32)cc1` came in with a logP of 5.35. `COc1ccc(C=C2c3cccc(O)c3C(=O)c3c(O)cccc32)cc1OC`: the logP turned out to be 5.05. With `O=C1c2c(O)cccc2C(C(=O)/C=C/c2ccc([N+](=O)[O-])cc2)c2cccc(O)c21`, the logP was 4.23. The value for `Cc1ccc(C=C2c3cccc(O)c3C(=O)c3c(O)cccc32)cc1` was 5.83; that for `O=C1c2c(O)cccc2C(C(=O)CCc2ccc(O)cc2)c2cccc(O)c21` was 3.73; that for `O=C1c2c(O)cccc2C(=CCCc2ccccc2)c2cccc(O)c21` was 5.67. `COc1cccc(C=CC(=O)C2c3cccc(O)c3C(=O)c3c(O)cccc32)c1` displayed a logP of 4.68. In the case of `O=C1c2c(O)cccc2C(C(=O)CCc2ccccc2)c2cccc(O)c21`, the logP worked out at 4.63. The value for `O=C1c2c(O)cccc2C(C(=O)Cc2ccc([N+](=O)[O-])cc2)c2cccc(O)c21` was 3.96; that for `O=C1c2c(O)cccc2C(C(=O)Cc2cc(O)c(O)c(O)c2)c2cccc(O)c21` was 2.61; that for `O=C1c2c(O)cccc2C(C(=O)/C=C/c2ccccc2)c2cccc(O)c21` was 4.6. Regarding `O=C1c2c(O)cccc2C(=Cc2ccc([N+](=O)[O-])cc2)c2cccc(O)c21`, the logP was found to be 4.96. Compound `O=C1c2c(O)cccc2C(C(=O)Cc2ccc(OCc3ccccc3)c(OCc3ccccc3)c2)c2cccc(O)c21` came in with a logP of 5.43. With `O=C(O)c1ccc(C=C2c3cccc(O)c3C(=O)c3c(O)cccc32)cc1`, the logP stood at 4.4.

Consider `COc1ccc(C=C2c3cccc(O)c3C(=O)c3c(O)cccc32)cc1`, for which the logP was 5.53. In the case of `O=C1c2c(O)cccc2C(C(=O)Cc2ccc(OCc3ccccc3)cc2)c2cccc(O)c21`, the lipophilicity (logP) is 5.01.
